# Test results: PMC3820707, “Structure-Activity Relationships of Constrained Phenylethylamine Ligands for the Serotonin 5-HT2 Receptors” (PLoS ONE, 2013)
# Counter-ions that a name gives are not always drawn. Like-named read-outs stand apart in the source and are kept apart here.
# Tests used:
# 5-HT2A [1] = target: T1, 5-HT2A (Homo sapiens, UniProt P28223); conditions: read-out: Affinity, Ki 5-HT2A; cited from earlier work
# 5-HT2A [2] = conditions: cited from earlier work; for Ki: Rat, read-out: Affinity, Ki 5-HT2A
# 5-HT2C [3] = conditions: Rat; read-out: Affinity, Ki 5-HT2C; cited from earlier work
# 5-HT2A-C = target: 5-HT2A-C; design: method as in PMID 9857084; conditions: range over 5-HT2A, 5-HT2B, 5-HT2C; read-out: Affinity in 5-HT2A-C; cited from earlier work
# 5-HT2B = 5-HT2B (Homo sapiens, UniProt P41595); assay: Competition binding with [3H]-LSD (NIMH PDSP)
# Sequence of 5-HT2B (P41595 whole entry): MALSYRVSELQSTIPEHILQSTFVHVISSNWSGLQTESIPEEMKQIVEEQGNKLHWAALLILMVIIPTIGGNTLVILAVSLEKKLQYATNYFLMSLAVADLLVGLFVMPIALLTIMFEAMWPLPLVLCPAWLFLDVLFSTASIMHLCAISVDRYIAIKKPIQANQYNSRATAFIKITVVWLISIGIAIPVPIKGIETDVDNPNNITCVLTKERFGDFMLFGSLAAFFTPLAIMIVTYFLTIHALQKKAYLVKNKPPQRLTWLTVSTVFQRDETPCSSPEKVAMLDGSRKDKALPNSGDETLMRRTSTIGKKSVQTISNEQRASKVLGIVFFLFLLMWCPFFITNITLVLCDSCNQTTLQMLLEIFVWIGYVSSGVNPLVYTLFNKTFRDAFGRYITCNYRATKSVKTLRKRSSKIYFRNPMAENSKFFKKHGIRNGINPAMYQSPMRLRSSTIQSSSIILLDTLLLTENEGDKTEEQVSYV
# 5-HT2A [4] = target: T1, 5-HT2A; assay: Competition binding with [3H]-ketanserin (NIMH PDSP)
# 5-HT2C [5] = target: T2, 5-HT2C (Homo sapiens, UniProt P28335); assay: Competition binding with [3H]-mesulergine (NIMH PDSP)
# T2 sequence (P28335 33-458): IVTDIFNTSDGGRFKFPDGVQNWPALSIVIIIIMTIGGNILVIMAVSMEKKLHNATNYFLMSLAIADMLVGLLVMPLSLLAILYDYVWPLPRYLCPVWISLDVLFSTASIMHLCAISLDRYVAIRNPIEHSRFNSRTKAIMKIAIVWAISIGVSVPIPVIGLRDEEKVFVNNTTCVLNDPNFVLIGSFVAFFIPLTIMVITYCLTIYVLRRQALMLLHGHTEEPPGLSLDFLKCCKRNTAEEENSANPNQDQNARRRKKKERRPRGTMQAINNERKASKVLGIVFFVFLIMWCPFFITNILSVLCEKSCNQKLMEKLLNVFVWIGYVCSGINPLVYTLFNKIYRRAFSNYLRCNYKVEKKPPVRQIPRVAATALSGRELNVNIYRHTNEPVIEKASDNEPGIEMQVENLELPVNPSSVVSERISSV
# [6] = Affinity, Ki 5-HT2B, radioligand [3H]-LSD
# T1 sequence (P28223 whole entry): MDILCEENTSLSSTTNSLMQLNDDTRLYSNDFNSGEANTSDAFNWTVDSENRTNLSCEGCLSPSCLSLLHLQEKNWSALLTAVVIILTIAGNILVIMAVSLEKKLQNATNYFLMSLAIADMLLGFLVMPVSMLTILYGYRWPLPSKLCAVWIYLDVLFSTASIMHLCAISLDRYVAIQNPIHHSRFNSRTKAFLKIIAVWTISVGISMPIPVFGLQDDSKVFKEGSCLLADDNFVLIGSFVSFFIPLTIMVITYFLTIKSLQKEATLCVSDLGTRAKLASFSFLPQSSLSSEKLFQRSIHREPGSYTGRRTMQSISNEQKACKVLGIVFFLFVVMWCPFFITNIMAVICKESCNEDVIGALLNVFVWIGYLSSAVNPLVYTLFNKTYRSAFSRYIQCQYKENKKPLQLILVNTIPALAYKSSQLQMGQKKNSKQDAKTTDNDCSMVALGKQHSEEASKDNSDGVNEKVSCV
compound,measurement,setting,value
"COc1cc2c(cc1Br)OCC2CN (stereo not shown) (as salt: hydrochloride) [Compound 9, (6-Bromo-5-methoxy-2,3-dihydrobenzofuran-3-yl)methanamine]",melting point,,232 to 234 °C (dec.)
"COc1cc2c(cc1Br)OCCCC2CN (stereo not shown) (as salt: hydrochloride) [Compound 11, (8-Bromo-7-methoxy-2,3,4,5-tetrahydrobenzo[b]oxepin-5-yl)methanamine]",melting point,,224 to 226 °C
"COc1cc(CCN)c(OC)cc1Br [Compound 1a, 2C-B]",Ki,5-HT2A [1],0.88 nM
"COc1cc(CC(C)N)c(OC)cc1Br (stereo not shown) [Compound 1b, DOB]",Ki,5-HT2A [2],[…]
same,Ki,5-HT2C [3],2.82 nM
"NCCc1c2c(c(Br)c3c1OCCC3)OCCC2 [Compound 3a, 2C-B-butterfly]",Ki,5-HT2A [2],1.76 nM
same,Ki,5-HT2C [3],1.52 nM
"CC(N)Cc1c2c(c(Br)c3c1OCCC3)OCCC2 (stereo not shown) [Compound 3b, DOB-butterfly]",Ki,5-HT2A [2],3.87 nM
same,Ki,5-HT2C [3],1.85 nM
"CC(N)Cc1c2ccoc2c(Br)c2ccoc12 (stereo not shown) [Compound 4, Bromo-DragonFLY]",Ki,5-HT2A-C,0.02 to 0.19 nM
COc1cc(Br)c(OC)c2c1C(CN)CC2 (stereo not shown) [Compound 7],Ki,5-HT2A [1],47 nM
COc1cc2c(cc1Br)OCCC(N)C2 (stereo not shown) [Compound 8],Fold lower affinity than the unconstrained reference DOB,5-HT2A [2]; 5-HT2A,373 fold
same,Ki,5-HT2A [2],422 nM
"COc1cc2c(cc1Br)OCC2CN (stereo not shown) [Compound 9, (6-Bromo-5-methoxy-2,3-dihydrobenzofuran-3-yl)methanamine]",Ki,5-HT2B; [6],196 ± 28 nM
same,Ki,5-HT2A [4],1040 ± 188 nM
same,Ki,5-HT2C [5],135 ± 31 nM
"COc1cc2c(cc1Br)OCCCC2CN (stereo not shown) [Compound 11, (8-Bromo-7-methoxy-2,3,4,5-tetrahydrobenzo[b]oxepin-5-yl)methanamine]",Ki,"5-HT2B; Affinity for 5-HT2B, radioligand [3H]-LSD",1900 nM
same,Ki,5-HT2B; [6],1870 ± 345 nM
same,Ki,5-HT2A [4],> 10000 nM
same,"Affinity, Ki 5-HT2A","5-HT2A [4]; Human, radioligand [3H]-ketanserin",inactive
same,Ki,5-HT2C [5],> 10000 nM
same,"Affinity, Ki 5-HT2C","5-HT2C [5]; Human, radioligand [3H]-mesulergine",inactive
(6-Methoxychroman-4-yl)methanamine [Compound 10],Ki,"5-HT2B; read-out: Affinity, Ki 5-HT2B, radioligand [3H]-LSD",70 ± 13 nM
same,Ki,"5-HT2A [4]; read-out: Affinity, Ki 5-HT2A, Human, radioligand [3H]-ketanserin",847 ± 79 nM
same,Ki,"5-HT2C [5]; read-out: Affinity, Ki 5-HT2C, Human, radioligand [3H]-mesulergine",124 ± 9 nM
